The results in this text go back to patent US20250312320A1, “METHOD AND TREATMENT FOR OSTEOARTHRITIS AND DISEASES OF CHONDROCYTE HYPERTROPHY” (The Royal Veterinary College, priority 2022, published 2025).

One test relates to ATDC5 micromasses. The test can be described thus: Epigenetic library screen on miniaturised ATDC5 micromasses (alcian blue / alizarin red). It counts as cell-based, mouse. The text has this:
An epigenetic library consisting of 226 known epigenetic modulator compounds was used to screen against ATDC5 high density micromass cultures to identify any compounds that have an inhibitory effect on matrix mineralisation (catabolic chondrocyte) whilst maintaining and/or promoting healthy extracellular matrix deposition (anabolic chondrocyte). The opposite may be used for identifying molecules that accelerate endochondral ossification for fracture repair i.e. promotes matrix mineralisation.
In the developed screening method, 5.4×10^4 cells in a total volume of 2 μl standard growth media (DMEM-F12, 5% FBS, 1% Ab/Am 10 μg/ml human transferrin, 3×10^−8 M sodium selenite) were seeded onto single wells of a 96-well plate and incubated at 37° C., 5% CO2 in a humidified incubator for 2 hours to allow for cell adherence. 100 μl of differentiation media DMEM-F12, 5% FBS, 1% Ab/Am, 5 μg/ml human transferrin, 1×ITS) containing a single compound was added to each well.
Plates were seeded in duplicate to allow for observation each compound has on glycosaminoglycan and mineral deposition at the end of the culture. This enabled for one 96-well plate to screen up to 96 compounds individually. Multiple plates were set up at the same time allowing the entire library to be screened in parallel. […]
On day 14, culture plates were fixed with 95% ice-cold methanol for 25 minutes and each compound treated well stained with either 1% alcian blue pH 2.5, a stain for glycosaminoglycans indicative of healthy ECM or 1% alizarin red pH 4.2, a stain for mineralisation (calcium) indicative of chondrocyte hypertrophy observed in cartilage disease. Alcian blue stained wells were leached with 8M guanidine hydrochloride and alizarin red leached with 10% cetylpyridinium chloride to quantify staining by absorbance 650 nm and 570 nm, respectively. Leached stain absorbances were plotted on GraphPad Prism for each compound for both alizarin red and alcian blue. To identify hits, the alcian blue:alizarin red ratio was plotted and readings higher than the control group ratios were classified as hits. […]

Test [1] deals with STR/Ort mouse (spontaneous osteoarthritis). Briefly: STR/Ort mouse 12 week study: gait analysis. The note with it: 5 mg/kg intermittently. It counts as in vivo. The method, then: Following the pilot study, a larger in vivo study using the STR/Ort OA mouse model was conducted. Str/ORT male mice aged 22 weeks (post OA onset) were dosed with either DMSO (N=5) or MSC2530818 5 mg/kg (N=6) intermittently as above for 12 weeks.
On week 11 mice were placed on the DigiGate™ system (MouseSpecifics), a treadmill based video gait analysis software. For Gait analysis, each mouse was placed on the DigiGate™ and allowed to acclimatise for 5 minutes, the belt speed was then set to 13 cm/s for 10 seconds to capture videos of mice whilst walking. Videos were then cropped to 5 seconds of active walking and number of steps per hind limb was counted for each mouse.

The test system of test [2] is hypertrophic ATDC5 micromasses. The test can be described thus: Metabolic analysis (MitoStress Test, Seahorse XF) of hypertrophic ATDC5 micromasses. It counts as cell-based, mouse. The note with it: 1 μM. The protocol:
This higher dependency on glycolysis for energy production is linked to enhanced catabolic processes, therefore reducing glycolysis has been proposed as a therapeutic approach for OA (Tan et al. (2022) “A new strategy for osteoarthritis therapy: Inhibition of glycolysis”. Front Pharmacol. 2022 Nov. 10; 13:1057229. doi: 10.3389/fphar.2022.1057229.). To assess energy metabolism of hypertrophic ATDC5 cells in the presence of CDK8i, 2 μl micromasses were seeded onto a Seahorse XF HS Miniplate (Agilent). Micromasses were differentiated in the presence of MSC2530818 as previously described for 1 week before switching to mineralisation media containing MSC2530818 for 24 hours. The MitoStress Test (Agilent) was carried out on hypertrophic micromasses using 1.5 μM oligomycin, 0.5 μM […] and 0.25 μM FCCP which measured real-time extracellular acidification and oxygen consumption rate. Analysis via the Agilent Seahorse Analytics platform basal oxygen consumption rate and glycolysis measurements.

Where [3] appears, read: compound present 14 days, compared to negative control BI1374 and DMSO.

Entries after “also recorded” stand apart in the source; their conditions may differ.

Turning to `CN(C)C(=O)Cn1cc(-c2ccc(-c3cncc4ccccc34)cc2)cn1` [BI1347], in the test on ATDC5 micromasses (setting [3]), the “glycosaminoglycan (GAG) deposition (alcian blue)” value is “promotes glycosaminoglycan (GAG) deposition” and the “mineralisation (alizarin red)” value is reported as “reduces mineralisation”. Moreover, in the test with ATDC5 micromasses (vs window of DMSO control ratios), the “alcian blue:alizarin red absorbance ratio (hit identification)” value is “modulator of endochondral ossification”.

With `Cc1n[nH]c2ncc(C(=O)N3CCC[C@H]3c3ccc(Cl)cc3)cc12` [MSC2530818], the “gait symmetry (left/right step ratio)” value in test [1] (week 11) is “modified step symmetry; also recorded: closer to 1”. Further, in test [1] (week 11, MSC N=6, DMSO N=5), the “number of steps per second, rear left limb, increase vs DMSO” value is listed as 1.25 fold and the “number of steps per second, rear right limb, increase vs DMSO” value is on record as 1.5 fold. Moreover, in test [2], the “decrease in total basal glycolysis (inferred from OCR/ECAR measurements) vs DMSO” value is listed as 37%. The “extracellular acidification rate (ECAR) vs DMSO” value in test [2] (across the time course measured) was “lower than DMSO control”. For the same molecule, the “total basal oxygen consumption rate (OCR) vs DMSO” value in test [2] (p=0.5085) was “no significant difference”.
